Tested on: PDOTS
Test: Bead-based cytokine profiling of PDOTS after ex vivo checkpoint blockade
Type: cell-based, human
Method: Fresh tumor specimens (murine and human patients) were received in media (DMEM) on ice and minced in a 10 cm dish (on ice) using sterile forceps and scalpel. Minced tumor was resuspended in DMEM ([…], […] sodium pyruvate, 1:100 penicillin-streptomycin) (Corning CellGro, Manassas, Va.) +10% FBS (Gemini Bio-Products, West Sacramento, Calif.), 100 U/mL collagenase type IV (Life Technologies, Carlsbad, Calif.), and 15 mM HEPES (Life Technologies, Carlsbad, Calif.), except for CT26 tumors that were prepared in RPMI. Samples were pelleted and resuspended in 10-20 mL media. Red blood cells were removed from visibly bloody samples using RBC Lysis Buffer (Boston Bio-Products, Ashland, Mass.). […]
Two multiplex assays were performed utilizing a bead-based immunoassay approach, the Bio-Plex Pro™ Human Cytokine 40-plex Assay (Cat #171AK99MR2) and Bio-Plex Pro™ Mouse Cytokine Panel 1, 23-plex (Cat #M60009RDPD) on a Bio-plex 200 system (Cat #171000201). […] Fold changes relative to the MDOT/PDOT control were calculated and plotted as log 2FC. Lower and upper limits of quantitation (LLOQ/ULOQ) were imputed from standard curves for cytokines above or below detection. […]

Row | Substance | CCL19/CXCL13 induction in PDOTS (Day 3, ipilimumab 50 μg/mL alone or with pembrolizumab 250 μg/mL) | PDOTS samples with upregulation of CCL19 and CXCL13 (Day 3 cytokine release, n=28, pembrolizumab 250 μg/mL)
1 | CTLA-4 blockade: PDOTS were treated with anti-CTLA-4 (ipilimumab, 50 μg/mL) | comparatively minimal | 
2 | PD-1 blockade: PDOTS were treated with anti-PD-1 (pembrolizumab, 250 μg/mL) |  | 23/28
